In patent publication US12297190B2, “Modulators of STING (stimulator of interferon genes)” (PFIZER INC., priority 2019, dated 2025):

Legend:
R232-STING = R232-STING (Homo sapiens, UniProt Q86WV6, H232R); experiment: biochemical
STING [1] = biological target: T1, STING (Homo sapiens, UniProt Q86WV6, G230A/H232R/R293Q/R71H); experiment: Interferon-β induction: THP-1 Lucia ISG reporter cell line; format: cell-based; details: THP-1 Lucia ISG cells, 24 hours incubation, luciferase reporter; read-out: THP-1 Lucia ISG Cells IFN-β EC50
T1 construct: host or cells: THP-1 and THP-1 Lucia ISG cells
Protocol: Interferon-β Induction: THP-1 ISG Reporter Cell Line
THP-1 Lucia™ ISG cells (InvivoGen) express the secreted luciferase “Lucia” reporter gene under the control of an IRF-inducible composite promotor comprised of five interferon response elements. THP-1 Lucia™ ISG cells were grown in RPMI media plus 2 mM L-glutamine, 10% fetal bovine serum, and 0.5% Pen-Strep. Hygromycin B and Zeocin were present to maintain stable transfection. 10^4 cells were seeded in 96-well plates and incubated overnight 37° C., 5% CO2. 50 μL of serial diluted compounds in media (final 0.5% DMSO) was and incubated for an additional 24 hours. After incubation, the plates were centrifuged at 2000 rpm for 10 min. 50 μl of cell culture supernatant of each well was transferred to a white, opaque 96-well plate. One pouch of QUANTI-Luc™ (InvivoGen) powder was prepared in 25 mL of endotoxin-free water and 100 μL of prepared warm QUANTI-Luc solution were added to each well containing the supernatant. The luminescence signal was measured using a Perkin-Elmer Envision microplate reader. Data were normalized to “% effect” with a positive control STING agonist that was known to maximize the luciferase signal and the negative control DMSO.

STING [2] = biological target: T1, STING; experiment: Phosphorylation of IRF3: THP-1 cell ELISA; format: cell-based; details: THP-1 cells, 3 hours incubation, phospho-IRF3 ELISA; read-out: THP-1 CELL P-IRF3 EC50
Protocol: Phosphorylation of IRF3: THP-1 Cell ELISA
STING activation results in recruitment of TBK1 and phosphorylation of IRF3 transcription factor before induction of type I interferons. THP-1 cells (InvivoGen) were grown in RPMI media plus 2 mM L-glutamine, 10% fetal bovine serum, and 0.5% Pen-Strep. 10^4 cells were seeded in 96-well plates and incubated overnight 37° C., 5% CO2. Compounds serial diluted compounds in media (final 0.5% DMSO) were added to the cells and incubated for an additional 3 hours. After incubation, the plates were centrifuged at 2000 rpm for 5 min. The cells were then lysed in 100 μl RIPA buffer and vortexed for 30 minutes at room temperature. 25 μl of lysate was then transferred to clear polystyrene High Bind plates that had been previously coated with mouse anti-human IRF-3 capture antibody (BD Pharmigen), and allowed to incubate at 4° C. for 16 hours. The plates were then washed and incubated with rabbit anti-phospho-IRF3 detection antibody (Cell Signaling Technologies) for 1.5 hours at room temperature. Finally, an HRP-linked secondary antibody (Cell Signaling Technologies) was added for 30 min before the Glo Substrate Reagent (R&D Systems) was used generate the luminescent signal. The signal was measured using a Perkin-Elmer Envision microplate reader. Data were normalized to “% effect” with a positive control STING agonist that was known to maximize the phosphorylated IRF3 signal and the negative control was DMSO.

Chain of R232-STING (Q86WV6 155-341 H232R): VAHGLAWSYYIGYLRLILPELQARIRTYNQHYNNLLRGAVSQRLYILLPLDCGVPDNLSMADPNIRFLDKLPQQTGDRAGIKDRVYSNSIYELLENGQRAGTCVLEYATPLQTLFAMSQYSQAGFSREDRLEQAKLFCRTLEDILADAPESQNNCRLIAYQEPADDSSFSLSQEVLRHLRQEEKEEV
T1 sequence (Q86WV6 whole entry R71H/G230A/H232R/R293Q): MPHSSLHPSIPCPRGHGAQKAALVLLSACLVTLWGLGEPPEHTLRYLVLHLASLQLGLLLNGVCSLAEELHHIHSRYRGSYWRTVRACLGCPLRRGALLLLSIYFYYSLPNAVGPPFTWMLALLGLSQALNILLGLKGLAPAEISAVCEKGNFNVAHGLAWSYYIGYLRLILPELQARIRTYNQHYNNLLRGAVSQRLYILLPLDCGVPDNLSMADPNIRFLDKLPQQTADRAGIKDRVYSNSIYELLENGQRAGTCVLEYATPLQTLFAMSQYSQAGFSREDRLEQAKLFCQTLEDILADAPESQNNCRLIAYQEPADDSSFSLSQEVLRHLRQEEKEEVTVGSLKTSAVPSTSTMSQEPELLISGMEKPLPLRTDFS

CCn1nc(C)c(F)c1-c1nc(-c2nc(C(N)=O)cc3c2cnn3CC(CO)CO)n(C)n1 [Example Y01, 4-[3-(1-ethyl-4-fluoro-3-methyl-1H-pyrazol-5-yl)-1-methyl-1H-1,2,4-triazol-5-yl]-1-[3-hydroxy-2-(hydroxymethyl)propyl]-1H-pyrazolo[4,3-c]pyridine-6-carboxamide]
Ki (R232-STING): 0.0272 µM
EC50 (STING [1]): 7.34 µM
EC50 (STING [2]): 7.1 µM

CCn1nc(C)cc1-c1n[nH]c(-c2cc(C(N)=O)cc3c2cnn3CCCC(=O)O)n1 [YY02, 4-{6-carbamoyl-4-[3-(1-ethyl-3-methyl-1H-pyrazol-5-yl)-1H-1,2,4-triazol-5-yl]-1H-indazol-1-yl}butanoic acid]
Ki (R232-STING): 0.0848 µM
EC50 (STING [1]): > 100 µM
EC50 (STING [2]): > 100 µM

CCn1nc(C)cc1-c1nnc(-c2cc(C(N)=O)cc3c2cnn3CCC(=O)O)[nH]1 [YY03, 3-{6-carbamoyl-4-[5-(1-ethyl-3-methyl-1H-pyrazol-5-yl)-4H-1,2,4-triazol-3-yl]-1H-indazol-1-yl}propanoic acid]
Ki (R232-STING): 0.109 µM
EC50 (STING [1]): > 100 µM
EC50 (STING [2]): > 100 µM

CCn1nc(C)cc1-c1nnc(-c2cc(C(N)=O)cc3c2cnn3CCN(C)C)[nH]1 [YY04, 1-[2-(dimethylamino)ethyl]-4-[5-(1-ethyl-3-methyl-1H-pyrazol-5-yl)-4H-1,2,4-triazol-3-yl]-1H-indazole-6-carboxamide]
Ki (R232-STING): > 0.638 µM
EC50 (STING [1]): > 100 µM
EC50 (STING [2]): > 100 µM

Cc1nn(CCC(=O)O)c(-c2n[nH]c(-c3cc(C(N)=O)cc4c3cnn4C)n2)c1Cl [YY05, 3-{5-[5-(6-carbamoyl-1-methyl-1H-indazol-4-yl)-1H-1,2,4-triazol-3-yl]-4-chloro-3-methyl-1H-pyrazol-1-yl}propanoic acid]
Ki (R232-STING): 0.396 µM
EC50 (STING [1]): > 100 µM
EC50 (STING [2]): > 100 µM

Cc1nn(CCC(=O)O)c(-c2n[nH]c(-c3cc(C(N)=O)cc4c3cnn4C)n2)c1F [YY06, 3-{5-[5-(6-carbamoyl-1-methyl-1H-indazol-4-yl)-1H-1,2,4-triazol-3-yl]-4-fluoro-3-methyl-1H-pyrazol-1-yl}propanoic acid]
Ki (R232-STING): 0.0471 µM
EC50 (STING [1]): > 100 µM
EC50 (STING [2]): > 100 µM

CCn1nc(C)cc1-c1nnc(-c2cc(C(N)=O)cc3c2cnn3[C@H](C)CN2CCOCC2)[nH]1 [YY07, 4-[5-(1-ethyl-3-methyl-1H-pyrazol-5-yl)-4H-1,2,4-triazol-3-yl]-1-[(2R)-1-(morpholin-4-yl)propan-2-yl]-1H-indazole-6-carboxamide]
Ki (R232-STING): 0.337 µM
EC50 (STING [1]): > 100 µM
EC50 (STING [2]): > 100 µM

CCn1nc(C)cc1-c1nnc(-c2cc(C(N)=O)cc3c2cnn3CCN2CCC(C#N)CC2)[nH]1 [YY09, 1-[2-(4-cyanopiperidin-1-yl)ethyl]-4-[5-(1-ethyl-3-methyl-1H-pyrazol-5-yl)-4H-1,2,4-triazol-3-yl]-1H-indazole-6-carboxamide]
Ki (R232-STING): 0.141 µM
EC50 (STING [1]): > 100 µM
EC50 (STING [2]): > 100 µM

CCn1nc(C)cc1-c1nnc(-c2cc(C(N)=O)cc3c2cnn3CC2(C)CC(OC)CN2C)[nH]1 (stereo not drawn) [YY10, 4-[5-(1-ethyl-3-methyl-1H-pyrazol-5-yl)-4H-1,2,4-triazol-3-yl]-1-[(4-methoxy-1,2-dimethylpyrrolidin-2-yl)methyl]-1H-indazole-6-carboxamide]
Ki (R232-STING): 0.237 µM
EC50 (STING [1]): > 100 µM
EC50 (STING [2]): > 100 µM

CCn1nc(C)cc1-c1nnc(-c2cc(C(N)=O)cc3c2cnn3CCN2CCC(OC)CC2)[nH]1 [YY11, 4-[5-(1-ethyl-3-methyl-1H-pyrazol-5-yl)-4H-1,2,4-triazol-3-yl]-1-[2-(4-methoxypiperidin-1-yl)ethyl]-1H-indazole-6-carboxamide]
Ki (R232-STING): 0.529 µM
EC50 (STING [1]): > 100 µM
EC50 (STING [2]): > 100 µM

CCn1nc(C)c(F)c1-c1n[nH]c(-c2cc(C(N)=O)cc3c2cnn3CCCN)n1 [YY12, 1-(3-aminopropyl)-4-[3-(1-ethyl-4-fluoro-3-methyl-1H-pyrazol-5-yl)-1H-1,2,4-triazol-5-yl]-1H-indazole-6-carboxamide]
Ki (R232-STING): 0.722 µM
EC50 (STING [1]): > 100 µM
EC50 (STING [2]): > 100 µM

CCn1nc(C)cc1-c1nnc(-c2cc(C(N)=O)cc3c2cnn3C2CC3CNCC3C2)[nH]1 (stereo not drawn) [YY13, 4-[5-(1-ethyl-3-methyl-1H-pyrazol-5-yl)-4H-1,2,4-triazol-3-yl]-1-(octahydrocyclopenta[c]pyrrol-5-yl)-1H-indazole-6-carboxamide]
Ki (R232-STING): 0.431 µM
EC50 (STING [1]): > 100 µM
EC50 (STING [2]): > 100 µM

CCn1nc(C)cc1-c1nnc(-c2cc(C(N)=O)cc3c2cnn3[C@@H]2CCNC2)[nH]1 [YY14, 4-[5-(1-ethyl-3-methyl-1H-pyrazol-5-yl)-4H-1,2,4-triazol-3-yl]-1-[(3R)-pyrrolidin-3-yl]-1H-indazole-6-carboxamide]
Ki (R232-STING): 0.484 µM
EC50 (STING [1]): > 100 µM
EC50 (STING [2]): > 100 µM

CCn1nc(C)cc1-c1nnc(-c2cc(C(N)=O)cc3c2cnn3CCCCC2CCNCC2)[nH]1 [YY15, 4-[5-(1-ethyl-3-methyl-1H-pyrazol-5-yl)-4H-1,2,4-triazol-3-yl]-1-[4-(piperidin-4-yl)butyl]-1H-indazole-6-carboxamide]
Ki (R232-STING): 0.329 µM
EC50 (STING [1]): > 100 µM
EC50 (STING [2]): > 100 µM

CCn1nc(C)cc1-c1nnc(-c2cc(C(N)=O)cc3c2cnn3Cc2nc3c(o2)CNC3)[nH]1 [YY16, 1-[(5,6-dihydro-4H-pyrrolo[3,4-d][1,3]oxazol-2-yl)methyl]-4-[5-(1-ethyl-3-methyl-1H-pyrazol-5-yl)-4H-1,2,4-triazol-3-yl]-1H-indazole-6-carboxamide]
Ki (R232-STING): 0.369 µM
EC50 (STING [1]): > 100 µM
EC50 (STING [2]): > 100 µM

CCn1nc(C)cc1-c1nnc(-c2cc(C(N)=O)cc3c2cnn3C2CC3(CCNC3)C2)[nH]1 (stereo not drawn) [YY17, 1-(6-azaspiro[3.4]octan-2-yl)-4-[5-(1-ethyl-3-methyl-1H-pyrazol-5-yl)-4H-1,2,4-triazol-3-yl]-1H-indazole-6-carboxamide]
Ki (R232-STING): 0.376 µM
EC50 (STING [1]): > 100 µM
EC50 (STING [2]): > 100 µM

CCn1nc(C)cc1-c1nnc(-c2cc(C(N)=O)cc3c2cc(C(=O)O)n3C)[nH]1 [YY19, 6-carbamoyl-4-[5-(1-ethyl-3-methyl-1H-pyrazol-5-yl)-4H-1,2,4-triazol-3-yl]-1-methyl-1H-indole-2-carboxylic acid]
Ki (R232-STING): 0.175 µM
EC50 (STING [1]): > 100 µM
EC50 (STING [2]): > 100 µM

Cc1cc(-c2n[nH]c(-c3cc(C(N)=O)cc4c3cnn4C(F)F)n2)n(CCC(=O)O)n1 [YY20, 3-(5-{5-[6-carbamoyl-1-(difluoromethyl)-1H-indazol-4-yl]-1H-1,2,4-triazol-3-yl}-3-methyl-1H-pyrazol-1-yl)propanoic acid]
Ki (R232-STING): 0.171 µM
EC50 (STING [1]): > 100 µM
EC50 (STING [2]): > 100 µM

Cc1cc(-c2n[nH]c(-c3c(F)c(C(N)=O)cc4c3cnn4C)n2)n(CCC(=O)O)n1 [YY21, 3-{5-[5-(6-carbamoyl-5-fluoro-1-methyl-1H-indazol-4-yl)-1H-1,2,4-triazol-3-yl]-3-methyl-1H-pyrazol-1-yl}propanoic acid]
Ki (R232-STING): > 0.891 µM
EC50 (STING [1]): > 100 µM
EC50 (STING [2]): > 100 µM

CCn1nc(C)cc1-c1n[nH]c(-c2cc(C(N)=O)cc3c2cnn3CCN2CCOC(C)C2)n1 (stereo not drawn) [YY22, 4-[3-(1-ethyl-3-methyl-1H-pyrazol-5-yl)-1H-1,2,4-triazol-5-yl]-1-[2-(2-methylmorpholin-4-yl)ethyl]-1H-indazole-6-carboxamide]
Ki (R232-STING): 0.491 µM
EC50 (STING [1]): > 33.3 µM
EC50 (STING [2]): > 33.3 µM

CCn1nc(C)cc1-c1n[nH]c(-c2cc(C(N)=O)cc3c2cnn3CCN2C3CCC2COC3)n1 [YY23, 4-[3-(1-ethyl-3-methyl-1H-pyrazol-5-yl)-1H-1,2,4-triazol-5-yl]-1-[2-(3-oxa-8-azabicyclo[3.2.1]octan-8-yl)ethyl]-1H-indazole-6-carboxamide]
Ki (R232-STING): 0.457 µM
EC50 (STING [1]): > 33.3 µM
EC50 (STING [2]): > 33.3 µM

CCn1nc(C)cc1-c1n[nH]c(-c2cc(C(N)=O)cc3c2cnn3CCN2CCO[C@@H](C)C2)n1 [YY24, 4-[3-(1-ethyl-3-methyl-1H-pyrazol-5-yl)-1H-1,2,4-triazol-5-yl]-1-{2-[(2S)-2-methylmorpholin-4-yl]ethyl}-1H-indazole-6-carboxamide]
Ki (R232-STING): 0.354 µM
EC50 (STING [1]): > 100 µM
EC50 (STING [2]): > 33.3 µM
